Assay results as given in the METLIN SMRT retention time set (Domingo-Almenara et al. 2019).

Test: gradient 5% acetonitrile 3 min, to 50% in 2 min, to 85% in 15 min, held 3 min, 100 µL/min
Details: column: Zorbax Extend-C18 2.1 x 50 mm; eluents: water / acetonitrile, 0.1% formic acid
How it was run: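 Retention times of pure standards were taken from adduct peaks that were selected by computer and manually inspected. Over 3 months, mixtures of ~100 molecules were run by HPLC–quadrupole time-of-flight mass spectrometry in positive and negative ionization mode. The Zorbax Extend-C18 column (2.1 × 50 mm, 1.8 μm) ran at 100 μL/min in water and acetonitrile, each containing 0.1% formic acid, with 40 μL dead volume and 900 μL dwell volume.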

| Structure (SMILES) | RP-LC retention time |
| --- | --- |
| CCCn1ncc(N2CCC(C(=O)N3CCCCC3)CC2)cc1=O | 559 s |
| CCN1CCN(c2ccc(NC(=O)c3cccc(Cl)c3)cn2)C1=O | 802 s |
| O=C(Nc1ccc(F)cc1)N1CC2CN(S(=O)(=O)c3ccccc3)CC(C1)O2 | 752 s |
| CCOC(=O)c1c(S(=O)(=O)N2CCC(C(=O)Nc3cccc(SC)c3)CC2)c(C)n(C)c1C | 907 s |
| O=S(=O)(NC1CCCCC1)c1cc(-c2noc(C3CCCC3)n2)cs1 | 1230 s |
| CCN(CC)CCNc1ccc(-c2nc(-c3ccc(F)cc3)no2)nn1 | 667 s |
| O=C(Nc1cc(-c2cccnc2)no1)c1ccc(F)cc1 | 729 s |
| CCOc1cccc(CNc2cc(-n3nc(C)cc3C)ncn2)c1 | 987 s |
| O=C(c1cn(-c2cc(N3CCCCC3)ncn2)cn1)N1CCC2(CC1)OCCO2 | 750 s |
| Cc1noc(/C=C\c2ccc(S(=O)(=O)N3CCCC3)cc2)c1NC(=O)C1CC1 | 837 s |
| O=C1CCN(C(=O)c2cccs2)CCOCCN1 | 585 s |
| Cc1sc(-c2cc(C(F)(F)F)on2)cc1S(=O)(=O)N1CCN(C2CCCCC2)CC1 | 857 s |
| CC1CCC(NC(=O)C2CCCN(c3cn[nH]c(=O)c3)C2)CC1 (stereo not drawn) | 680 s |
| CCc1nc2cccnc2n1CCN1CCN(C(=O)Nc2cccc(Br)c2)CC1 | 616 s |
| CCc1nc(-c2csc(S(=O)(=O)N3CCCC(C(=O)Nc4ccc(F)cc4C)C3)c2)no1 (stereo not drawn) | 1020 s |
| CCc1nnc(-c2cn(CC(=O)NCc3cccc(Br)c3)c3ccccc23)o1 | 867 s |
| COC(=O)c1ccc(NC(=O)N2CC(N(C3CCOCC3)S(C)(=O)=O)C2)cc1 | 686 s |
| Cc1ccc(C)c(N2CCN(c3ccncc3N)CC2)c1 | 777 s |
| Cc1ccc(S(=O)(=O)c2ccccc2[N+](=O)[O-])cc1 | 874 s |

| Structure (SMILES) | RP-LC retention time |
| --- | --- |
| COC1CN(C2CCN(C(=O)CC(C)C)CC2)C12CCOCC2 (stereo not drawn) | 579 s |
| CN1c2cc(Cl)ccc2C(=O)NC12CCN(C(=O)Nc1ccc3c(c1)OCCO3)CC2 | 781 s |
| Cc1ccc(N2CCC(NC(=O)Nc3ccccc3C)C2=O)cc1 (stereo not drawn) | 823 s |
| COc1ccc(NC(=O)N2CCC(c3cc(N)on3)CC2)cc1 | 640 s |
| CC(C)n1cc(S(=O)(=O)Nc2cc(F)ccc2Cl)c2cccnc21 | 989 s |
| Cc1ccccc1-c1noc(Cn2cnc3c(cnn3-c3ccc(Br)cc3)c2=O)n1 | 1200 s |
| CCc1noc2nc(CCC(=O)NCCOC)nc(N3CCCCC3)c12 | 724 s |
| Cn1c(N2CCCN(C(=O)CCn3c(C4CCCCC4)nc4ccccc43)CC2)cc(=O)n(C)c1=O | 610 s |
| Cc1oc(C2CCN(S(=O)(=O)c3cc(F)ccc3F)CC2)nc1C(=O)N(C)C | 816 s |
| O=C(NCc1cc(F)ccc1F)C1CCN(C(=O)c2ncn3c2COC(c2ccccc2)C3)CC1 (stereo not drawn) | 766 s |
| Nc1nc(N2CCc3ccccc3C2)ncc1C(=O)NCc1ccccc1 | 737 s |
| Cc1cccc(NC(=O)CN2c3ccccc3NC3=C(C(=O)CCC3)C2c2ccco2)c1C (stereo not drawn) | 851 s |
| CCOC(=O)c1ccc(N2C=C(C#N)S(=O)(=O)c3ccc(C)cc32)cc1 | 978 s |
| CCc1ccccc1NC(=O)N1CCC2(CC1)NC(=O)c1ccccc1N2C | 731 s |
| CCN1CCCn2cc(S(=O)(=O)NCc3cccc(C)c3)cc2C1=O | 780 s |
| O=C(NC1CCCC1)N1CCN(Cc2nc3cc(-c4ccccc4)ccc3o2)CC1 | 787 s |
| CCOc1cc(-c2ccc(F)cc2)nc2ccc(NS(=O)(=O)c3cccc(C#N)c3)cc12 | 816 s |
| CCCCCc1cccnc1 | 669 s |
| CC(C)NC(=O)c1ccc(OCC2CCN(C(=O)CC(C)(C)C)CC2)cc1 | 875 s |
